{"source": "patent US12213978B2", "about": "“Madrasin-derivative compounds, composition and uses thereof for treating cancer” (INSTITUT GUSTAVE ROUSSY, priority 2018, dated 2025)", "key": {"[1]": {"tested_on": "B16F10 melanoma cells expressing the intron-derived SL8 antigen", "experiment": "T-cell assay: B3Z specific T-cell activation by B16F10 cells expressing the intron-derived SL8 antigen", "type": "cell-based, mouse", "conditions": "for PTP-SL8 presentation (B3Z T-cell activation): O/N", "experimental": "(§1) MCA205 mouse sarcoma cell line is cultured at 37° C. under 5% CO2 in RPMI 1640 medium (Life Technologies) in the presence of 1% glutamine, 1% sodium pyruvate, 1% non-essential amino-acids, 1% penicillin/streptomycin and 10% FBS (Life Technologies). B16F10 mouse melanoma cell line is cultured at 37° C. under 5% CO2 in DMEM medium (Life Technologies) containing 1% glutamine, 1% penicillin/streptomycin and 10% FCS under standard conditions. Stable MCA205-Globin-SL8-intron cell line are cultured under the same condition as MCA205 cell line with additional 500 μg/ml G418 (Life Technologies) for selection. Stable B16F10-Globin-SL8-intron cell line are cultured under the same condition as B16F10 cell line with additional 500 μg/ml G418 (Life Technologies) for selection. The SL8/Kb-specific (B3Z) T-cell reporter hybridoma are cultured at 37° C. under 5% CO2 in RPMI 1640 medium (Life Technologies) in the presence of 1% L-glutamine, 1% penicillin/streptomycin, 50 μM β-mercaptoéthanol and 10% FCS.\n(§2) MCA205 and B16F10 mouse cell lines are transfected with the plasmid YFP-Globin-SL8-intron or with the PCDNA3 empty plasmid (negative control) with the transfection reagent jetPRIME (Ozyme) or GeneJuice (Millipore) respectively according to each manufacturer protocol. Twenty-four hours after transfection, cells are treated with different doses of Madrasin (Sigma SML 1409), Madra.HCl (3·HCl) or the different compounds herein cited. Cells are then washed three times with PBS 1× and 5.10^4 tumor cells are co-cultured with 1.10^5 B3Z hybridoma in a 96-well plate. In positive control wells, 4 μg/ml of synthetic peptide SL8 is added. Cells are then incubated overnight at 37° C. with 5% CO2. The plate is centrifuged at 1200 rpm for 5 min, cells are washed twice with PBS 1× and lysed for 5 min at 4° C. under shaking in 0.2% TritonX-100, 0.2% DTT, 0.5M K2HPO4, 0.5M KH2PO4. The lysate is centrifuged at 3000 rpm for 10 min and the supernatant is transferred to a 96-well optiplate (OptiPlaque-96, PerkinElmer). A revelation buffer containing 10 mM MgCl2, 11.2 mM β-mercaptoethanol, 0.0015% IGEPAL® CA-630 and 40 μM 4-Methylumbelliferyl β-D-Galactopyranoside (MUG) in PBS is added and the plate is incubated at room temperature for 3 hours. Finally, the β-galactosidase activity is measured using the FLUOstar OPTIMA (BMG LABTECH Gmbh, 30 Offenburg, Germany). Results are expressed as mean±SEM. *P<0.05, **P<0.01, ***P<0.001 (unpaired student t test)."}, "[2]": {"tested_on": "MCA205 sarcoma cells expressing the intron-derived SL8 antigen", "experiment": "T-cell assay: B3Z specific T-cell activation by MCA205 cells expressing the intron-derived SL8 antigen", "type": "cell-based, mouse", "conditions": "for PTP-SL8 presentation (B3Z T-cell activation): O/N", "experimental": "as §1, §2"}, "[3]": {"experiment": "Solubility in water", "type": "physicochemical"}}}
{"smiles": "COc1ccc2c(C)nc(Nc3c[nH]c4ccccc34)nc2c1", "note": "[EYP165, N-(1H-Indol-3-yl)-7-methoxy-4-methylquinazolin-2-amine]", "values": [{"measurement": "PTP-SL8 presentation (B3Z T-cell activation)", "setting": "[1]; B16F10, 60 μM", "value": "increase"}, {"measurement": "PTP-SL8 presentation (B3Z T-cell activation)", "setting": "[2]; MCA205, 60 μM", "value": "increase"}]}
{"smiles": "Cc1nc(Nc2nc(C)c3ccc(OCCN4CCOCC4)cc3n2)[nH]c(=O)c1C", "note": "[EYP201, 5,6-Dimethyl-2-((4-methyl-7-(2-morpholinoethoxy)quinazolin-2-yl)amino)pyrimidin-4(3H)-one]", "values": [{"measurement": "PTP-SL8 presentation (B3Z T-cell activation)", "setting": "[1]; B16F10, 20 μM", "value": "increase"}, {"measurement": "PTP-SL8 presentation (B3Z T-cell activation)", "setting": "[2]; MCA205, 20 μM", "value": "increase"}]}
{"smiles": "COc1ncc(Nc2ncc3ccccc3n2)cn1", "note": "[EYP281, N-(2-Methoxypyrimidin-5-yl)quinazolin-2-amine]", "values": [{"measurement": "PTP-SL8 presentation (B3Z T-cell activation)", "setting": "[1]; B16F10, 50 μM", "value": "increase"}, {"measurement": "PTP-SL8 presentation (B3Z T-cell activation)", "setting": "[2]; MCA205, 50 μM", "value": "increase"}]}
{"smiles": "COc1ccc2c(C)nc(Nc3cn(C(=O)OC(C)(C)C)c4ccccc34)nc2c1", "note": "[EYP177, t-Butyl 3-((7-methoxy-4-methylquinazolin-2-yl)amino)-1H-indole-1-carboxylate]", "values": [{"measurement": "PTP-SL8 presentation (B3Z T-cell activation)", "setting": "[1]; B16F10, 60 μM", "value": "not see any increase"}, {"measurement": "PTP-SL8 presentation (B3Z T-cell activation)", "setting": "[2]; MCA205, 60 μM", "value": "not see any increase"}]}
{"smiles": "COc1ccc2c(C)nc(Nc3nc(C)c(C)c(=O)[nH]3)nc2c1S[C@H]1O[C@@H](CO)[C@H](O)[C@@H](O)[C@@H]1O", "note": "[EYP113, 2-((7-Methoxy-4-methyl-8-(((2R,3S,4R,5R,6S)-3,4,5-trihydroxy-6-(hydroxymethyl)tetrahydro-2H-pyran-2-yl)thio)quinazolin-2-yl)amino)-5,6-dimethylpyrimidin-4(3H)-one]", "values": [{"measurement": "PTP-SL8 presentation (B3Z T-cell activation)", "setting": "[1]; B16F10, 10 μM", "value": "not see any increase"}, {"measurement": "PTP-SL8 presentation (B3Z T-cell activation)", "setting": "[2]; MCA205, 10 μM", "value": "not see any increase"}]}
{"smiles": "CNc1ccnc(Nc2nc(C)c3ccc(OC)cc3n2)n1", "note": "[EYP181, N^2-(7-Methoxy-4-methylquinazolin-2-yl)-N^4-methylpyrimidine-2,4-diamine]", "values": [{"measurement": "PTP-SL8 presentation (B3Z T-cell activation)", "setting": "[1]; B16F10, 10 μM", "value": "increase"}]}
{"smiles": "COc1ccc2c(C)nc(Nc3ccc(C)cc3)nc2c1", "note": "[EYP156, 7-Methoxy-4-methyl-N-(p-tolyl)quinazolin-2-amine]", "values": [{"measurement": "PTP-SL8 presentation (B3Z T-cell activation)", "setting": "[1]; B16F10, 60 μM", "value": "not see any increase"}, {"measurement": "PTP-SL8 presentation (B3Z T-cell activation)", "setting": "[2]; MCA205, 60 μM", "value": "not see any increase"}]}
{"smiles": "COc1ccc2c(C)nc(Nc3nc(C)c(C)c(=O)[nH]3)nc2c1SC1OC(COC(C)=O)C(OC(C)=O)C(OC(C)=O)C1OC(C)=O", "note": "[EYP86, ((1S,2S,4R,5S,6S)-5-Acetoxy-7,8-diacetyl-4-((2-((4,5-dimethyl-6-oxo-1,6-dihydropyrimidin-2-yl)amino)-7-methoxy-4-methylquinazolin-8-yl)thio)-3,7λ^3,8λ^3-trioxabicyclo[4.2.0]octan-2-yl)methyl Acetate]", "values": [{"measurement": "PTP-SL8 presentation (B3Z T-cell activation)", "setting": "[2]; MCA205, 50 μM", "value": "increase"}]}
{"smiles": "COc1ccc2c(C)nc(Nc3nc(C)c(C)c(=O)[nH]3)nc2c1SCC(NC(C)=O)C(=O)O", "note": "(stereo not drawn) [EYP102, N-Acetyl-S-(2-((4,5-dimethyl-6-oxo-1,6-dihydropyrimidin-2-yl)amino)-7-methoxy-4-methylquinazolin-8-yl)cysteine]", "values": [{"measurement": "PTP-SL8 presentation (B3Z T-cell activation)", "setting": "[1]; B16F10, 20 μM", "value": "not see any increase"}, {"measurement": "PTP-SL8 presentation (B3Z T-cell activation)", "setting": "[2]; MCA205, 20 μM", "value": "not see any increase"}]}
{"smiles": "COc1ccc2c(C)nc(Nc3nccc(OC)n3)nc2c1", "note": "[EYP179, 7-Methoxy-N-(4-methoxypyrimidin-2-yl)-4-methylquinazolin-2-amine]", "values": [{"measurement": "PTP-SL8 presentation (B3Z T-cell activation)", "setting": "[1]; B16F10, 20 μM", "value": "increase"}]}
{"smiles": "COc1ccc2c(C)nc(Nc3ccnc(OC)n3)nc2c1", "note": "[EYP190, 7-Methoxy-N-(2-methoxypyrimidin-4-yl)-4-methylquinazolin-2-amine]", "values": [{"measurement": "PTP-SL8 presentation (B3Z T-cell activation)", "setting": "[1]; B16F10, 60 μM", "value": "increase"}]}
{"smiles": "COc1ccc2c(C)nc(Nc3ccc(OC)nc3)nc2c1", "note": "[EYP174, 7-Methoxy-N-(6-methoxypyridin-3-yl)-4-methylquinazolin-2-amine]", "values": [{"measurement": "PTP-SL8 presentation (B3Z T-cell activation)", "setting": "[1]; B16F10, 20 μM", "value": "increase"}]}
{"smiles": "COc1ccc2c(C)nc(Nc3cc(OC)c(OC)c(OC)c3)nc2c1", "note": "[EYP188, 7-Methoxy-4-methyl-N-(3,4,5-trimethoxyphenyl)quinazolin-2-amine]", "values": [{"measurement": "PTP-SL8 presentation (B3Z T-cell activation)", "setting": "[2]; MCA205, 60 μM", "value": "increase"}]}
{"smiles": "COc1ccc2c(C)nc(Nc3nc(C)c(C)c(=O)[nH]3)nc2c1", "note": "[Madrasin, 2-((7-Methoxy-4-methylquinazolin-2-yl)amino)-5,6-dimethylpyrimidin-4(3H)-one]", "values": [{"measurement": "PTPs-dependent antigen presentation (B3Z T-cell activation)", "setting": "[1]; B16F10, 5 μM or 10 μM, dose dependent", "value": "increase"}, {"measurement": "PTPs-dependent antigen presentation (B3Z T-cell activation)", "setting": "[2]; MCA205, 5 μM or 10 μM, dose dependent", "value": "increase"}, {"measurement": "solubility in water", "setting": "[3]", "value": "insoluble in water"}]}
